According to patent US11274332B2, “Methods of administering 3,4-diaminopyridine” (SERB SA, priority 2011, dated 2022):
Like-named read-outs stand apart in the source and are kept apart here.

Experiment: Example 18 Part 1: single ascending dose PK (5-30 mg) in slow and fast acetylators
Type: in vivo, human
Conditions: for half-life / Cmax: both sexes, human, plasma; for half-life: oral, 5-30 mg, read-out: Mean terminal elimination half-lives; for Cmax: po, single oral doses 5 to 30 mg, read-out: mean Cmax, range over doses
Protocol: The following method was used to analyze concentrations of 3,4-diaminopyridine and N-(4-aminopyridin-3-yl)acetamide in plasma and urine samples for the experiments in Example 18. In the LC/MS/MS method, the human plasma and urine samples were extracted using acetonitrile containing 0.1% formic acid. Samples were analyzed by using HPLC with positive ion electrospray MS/MS detection. The column was an Atlantis HILIC Silica column (3 μm, 3×50 mm) at a temperature of 40° C. Mobile phase A was water containing ammonium formate (20 mM) and 0.1% formic acid. Mobile phase B was acetonitrile/isopropanol (90/10; v/v) containing 0.1% formic acid. The flow rate was 0.90 mL/minute. The gradient conditions for human plasma and urine samples were as follows:
The LC/MS/MS method was validated to quantify 3,4-DAP in human plasma in the linear calibration range of 0.500 to 500 ng/mL and from 1.00 to 1000 ng/mL for the 3-N-acetyl metabolite.
The primary objective of the study was to assess the safety and tolerability of 3,4-DAP phosphate after single and multiple doses. The secondary objectives of the study were • Part 1 only: To determine the dose-related PK profile of amifampridine and of 3-N-acetyl amifampridine after single, escalating doses of 3,4-DAP phosphate • Part 2 only: To assess the steady-state plasma PK and accumulation of amifampridine and of 3-N-acetyl amifampridine over multiple days of dosing with 3,4-DAP phosphate An exploratory objective was to examine the overall activity of the N-acetyl transferase enzymes on the metabolism of amifampridine by assessing the PK of amifampridine and 3-N-acetyl amifampridine with phenotypic acetylation activity and genotyping determination of NAT2 gene polymorphisms. Study Design and Plan
This open-label study in healthy subjects (male and female) was conducted in 2 parts. A total of 26 healthy male and female subjects, 12 in Part 1 (at least 5 of each sex), 4 in Part 2 Group 1, and 10 in Part 2 Group 2 (at least 4 of each sex) were enrolled into the study. The same subjects were not enrolled to participate in both parts. Subjects in Part 2 were dosed only after all subjects of Part 1 completed dosing and at least 24-hours of follow-up safety evaluation after the last dose were completed.
All subjects were characterized for their metabolic acetylation phenotype and NAT2 genotype in order to divide subjects into two groups of acetylators. Volunteers were genetically typed for highly variant alleles of the N-acetyl transferase 2 enzyme (NAT2) domain on chromosome 8 (according to Example 16) and were phenotyped for acetylation rates with a caffeine challenge test (according to Example 15a). Approximately equal numbers of slow and fast acetylators (as defined by a caffeine challenge test in Example 15a) were enrolled in each group. In Part 2, very slow acetylators with NAT2 activity (ratio 1, Example 15a) below 0.06 were excluded from participation in the study. In each part of the study, subjects were assessed for PK, safety, and tolerability and all doses were administered within 30 min of ingestion of a meal or a snack.
Part 1 was a dose-proportionality study in 12 healthy subjects each receiving 4 ascending single oral doses of 3,4-DAP phosphate in a sequential manner (5 mg, 10 mg, 20 mg, and 30 mg). For all 12 subjects, the first 3 doses of oral 3,4-DAP phosphate (5-20 mg) were administered on 3 consecutive days (Days 1-3). Two fast and two slow acetylators (as defined by a caffeine challenge test in Example 15a) were selected as the first 4 enrolled subjects (sentinel subjects). For the 2 fast acetylators the 30 mg dose was administered on Day 4. […] Safety and tolerability data collected for all 4 subjects were reviewed and the safety and tolerability results of the 30 mg dose for these 4 sentinel subjects were acceptable. The 30 mg dose was given to the remaining 8 non-sentinel subjects on Day 7. […]

Nc1ccncc1N [3,4-DAP, 3,4-diaminopyridine]
Mean AUC0-t Slow/fast Ratio (5 mg single dose): 10.4 | Mean CL/F Slow/fast Ratio (5 mg single dose): 0.114 | Mean Cmax Slow/fast Ratio (5 mg single dose): 4.50 | Mean t1/2 Slow/fast Ratio (5 mg single dose): 3.68 | Mean AUC0-t Slow/fast Ratio (10 mg single dose): 6.94 | Mean CL/F Slow/fast Ratio (10 mg single dose): 0.163 | Mean Cmax Slow/fast Ratio (10 mg single dose): 3.47 | Mean t1/2 Slow/fast Ratio (10 mg single dose): 2.15 | Mean AUC0-t Slow/fast Ratio (20 mg single dose): 5.75 | Mean CL/F Slow/fast Ratio (20 mg single dose): 0.186 | Mean Cmax Slow/fast Ratio (20 mg single dose): 3.50 | Mean t1/2 Slow/fast Ratio (20 mg single dose): 2.38 | Mean AUC0-t Slow/fast Ratio (30 mg single dose): 5.29 | Mean CL/F Slow/fast Ratio (30 mg single dose): 0.196 | Mean Cmax Slow/fast Ratio (30 mg single dose): 3.51 | Mean t1/2 Slow/fast Ratio (30 mg single dose): 1.88 | half-life (fast acetylators): 0.603 to 1.65 h | half-life (slow acetylators): 2.22 to 3.11 h | Cmax (fast acetylator phenotype): 3.98 to 25.5 ng/mL | Cmax (slow acetylator phenotype): 17.9 to 89.6 ng/mL | AUC increase over 6-fold dose range (5 to 30 mg) (fast acetylators): 15.1 fold | Cmax increase over 6-fold dose range (5 to 30 mg) (fast acetylators): 6.41 fold | AUC increase over 6-fold dose range (5 to 30 mg) (slow acetylators): 7.64 fold | Cmax increase over 6-fold dose range (5 to 30 mg) (slow acetylators): 5.01 fold
